Publication PMC11931052, “Efficacy of dispirotripiperazine PDSTP in a golden Syrian hamster model of SARS-CoV-2 infection” (Frontiers in Microbiology, 2025)

System: SARS-CoV-2 BA.4/5 variant
Assay type: cell-based
Settings: Calu-3 cells; PDSTP 20 and 4 μM; plaque assay

Cc1nc(N2CC[N+]3(CC2)CC[N+]2(CCNCC2)CC3)c([N+](=O)[O-])c(N2CC[N+]3(CC2)CC[N+]2(CCNCC2)CC3)n1.Cl.Cl.O.O.O.O.O.O.O.O.O.[Cl-].[Cl-].[Cl-].[Cl-] [PDSTP, 3,3′-(2-methyl-5-nitropyrimidine-4,6-diyl)bis-3,12-diaza-6,9-diazonia-dispiro[5.2.5.2]hexadecane tetrachloride dihydrochloride nonahydrate]
Effect on viral titers, BA.4/5 variant: strongly reduce viral titers
